{
  "source": "patent US8158605B2",
  "about": "“Azacytidine analogues and uses thereof” (Mount Sinai School of Medicine, priority 2007, dated 2012)",
  "key": {"cell cycle": {"system": "cell cycle", "assay": "Cell cycle analysis of DNA contents by flow cytometry", "assay_type": "cell-based", "procedure": "Cells were pelleted by centrifugation, and washed twice with PBS, fixed with 70% (v/v) cold ethanol (−20° C.), and stored at 4° C. for at least 24 hours. The cells were washed in PBS. Cell pellets were stained with PI/RNase staining solution. The cell suspension was incubated in the dark at room temperature for 30 min. DNA content was determined using a FACSCalibur flow cytometry (Becton Dickinson, Mount View, Calif.). Percentages of cells in Sub-G1, G1, S and G2/M stages of the cell cycle were determined with DNA histogram-fitting program (Becton Dickinson). A minimum of 10,000 events per sample was recorded.\nCells were cultured for the indicated lengths of time before being processed for analyses of DNA contents by flow cytometry. Numerical values in a panel represent gated cell population with sub-G1 DNA contents. The most significant changes were observed after 24 hours of treatment."}, "[1]": {"system": "HL60, K562, and U937 cells", "assay": "Apoptosis induction in leukemia cells (AO/EB microscopy, Annexin-V/PI flow cytometry)", "assay_type": "cell-based, human", "settings": "0.5-4 μM, 24 hours; AO/EB staining and Annexin-V/PI flow cytometry", "procedure": "Apoptotic cells were defined using morphological criteria and fluorescence-activated cell sorting (FACS) after staining with Annexin V-FITC. For morphologic analysis, 1 μl of stock solution containing 100 μg/ml AO and 100 μg/ml EB was added to 25 μl cells suspension. The apoptitic cells and apoptotic bodies were analyzed with the aid of a fluorescence microscopy. The percentage of apoptotic cells was calculated after counting total 300 cells. For FACS analysis, […] to 5×10^6 cells were washed with PBS and then labeled with Annexin V-FICS and propidium iodide (PI) in medium-binding reagent according to the Annexin V-FITC apoptosis detection kit instruction provided by the manufacturer. Fluorescent signals of FITC and PI were detected, respectively, at 518 nm and at 620 nm on FACSCAN (Becton Dickinson, San Jose, Calif.). […] The data was analyzed by the CellQuest program (Becton Dickinson). For each analysis, 10,000 cells events were recorded.\nThe percentage of apoptotic cells was determined with the aid of a fluoresence microscope after staining with acridine orange and ethidium bromide (See FIG. 2A). […] The percentage of apoptotic cells was determined by flow cytometry using Annexin-V and PI staining. […] (See FIGS. 2a and 2b)"}, "[2]": {"system": "U937, HL60 and K562 cells", "assay": "Differentiating induction (NBT reduction, benzidine staining)", "assay_type": "cell-based, human", "settings": "repeated exposure for 11 (HL60) or 14 (U937, K562) days", "procedure": "Cell differentiation was studied in terms of morphology. […] After initial treatment on day 0, cells were exposed to the new portions of drugs on day 4, 7, and 10. The differentiation was evaluated by NBT reduction assay (U937 and HL60) or by benzidine staining (K562)."}, "[3]": {"system": "MT-3/ADR resistant breast carcinoma", "assay": "MTT cytotoxicity", "assay_type": "cell-based", "settings": "MDR1, MT-3/ADR resistant breast carcinoma (overexpress MDR-1/p-glycoprotein), 24 hours", "procedure": "(§1) The cytotoxicity of Aza-C and 5-Aza-C-5′-elaidic acid was determined in a breast cancer cell line MT-3 and the adriablastin resistant cell line MT-3/ADR. The MT-3/ADR overexpress the MDR-1/p-glycoprotein. […] The cells were incubated for 24 hours. […] Six wells were used per test concentration. The cells were incubated with test compound for 24 hours. […] Similar activity was obtained for Aza-C and 5-Aza-C-5′-elaidic acid in the MT-3 breast carcinoma cell line, but in the MT-3/ADR resistant cell line the activity of Aza-C was lost. […] This may be of importance in the treatment of resistant cancer."}, "[4]": {"system": "breast carcinoma cell line MT-3", "assay": "MTT cytotoxicity", "assay_type": "cell-based", "settings": "MT-3 breast carcinoma, 24 hours", "procedure": "as §1"}},
  "data": [
    {"smiles": "CCCCCCCC/C=C/CCCCCCCC(=O)OC[C@H]1O[C@@H](n2cnc(N)nc2=O)[C@H](O)[C@@H]1O", "note": "[CP, 5-azacytidine 5′-elaidate]", "values": [
      {"measurement": "% cell G1", "setting": "cell cycle; 24 hour, dose 0.5 μM", "value": 43.66, "unit": "%"},
      {"measurement": "% cell G2/M", "setting": "cell cycle; 24 hour, dose 0.5 μM", "value": 11.05, "unit": "%"},
      {"measurement": "% cell S", "setting": "cell cycle; 24 hour, dose 0.5 μM", "value": 28.15, "unit": "%"},
      {"measurement": "% cell Sub G1", "setting": "cell cycle; 24 hour, dose 0.5 μM", "value": 9.41, "unit": "%"},
      {"measurement": "% cell G1", "setting": "cell cycle; 24 hour, dose 1 μM", "value": 36.17, "unit": "%"},
      {"measurement": "% cell G2/M", "setting": "cell cycle; 24 hour, dose 1 μM", "value": 8.82, "unit": "%"},
      {"measurement": "% cell S", "setting": "cell cycle; 24 hour, dose 1 μM", "value": 18.98, "unit": "%"},
      {"measurement": "% cell Sub G1", "setting": "cell cycle; 24 hour, dose 1 μM", "value": 21.02, "unit": "%"},
      {"measurement": "% cell G1", "setting": "cell cycle; 24 hour, dose 2 μM", "value": 23.45, "unit": "%"},
      {"measurement": "% cell G2/M", "setting": "cell cycle; 24 hour, dose 2 μM", "value": 2.64, "unit": "%"},
      {"measurement": "% cell S", "setting": "cell cycle; 24 hour, dose 2 μM", "value": 9.14, "unit": "%"},
      {"measurement": "% cell Sub G1", "setting": "cell cycle; 24 hour, dose 2 μM, listed as 5-azacytidine 5′-elaidate", "value": 33.6, "unit": "%"},
      {"measurement": "% cell Sub G1", "setting": "cell cycle; 24 hour, dose 2 μM, listed as cp", "value": 33.59, "unit": "%"},
      {"measurement": "% cell G1", "setting": "cell cycle; 48 hour, dose 0.5 μM", "value": 34.79, "unit": "%"},
      {"measurement": "% cell G2/M", "setting": "cell cycle; 48 hour, dose 0.5 μM", "value": 2.53, "unit": "%"},
      {"measurement": "% cell S", "setting": "cell cycle; 48 hour, dose 0.5 μM", "value": 42.96, "unit": "%"},
      {"measurement": "% cell Sub G1", "setting": "cell cycle; 48 hour, dose 0.5 μM", "value": 15.14, "unit": "%"},
      {"measurement": "% cell G1", "setting": "cell cycle; 48 hour, dose 1 μM", "value": 28.07, "unit": "%"},
      {"measurement": "% cell G2/M", "setting": "cell cycle; 48 hour, dose 1 μM", "value": 17.91, "unit": "%"},
      {"measurement": "% cell S", "setting": "cell cycle; 48 hour, dose 1 μM", "value": 30.06, "unit": "%"},
      {"measurement": "% cell Sub G1", "setting": "cell cycle; 48 hour, dose 1 μM", "value": 14.34, "unit": "%"},
      {"measurement": "% cell G1", "setting": "cell cycle; 48 hour, dose 2 μM", "value": 22.51, "unit": "%"},
      {"measurement": "% cell G2/M", "setting": "cell cycle; 48 hour, dose 2 μM", "value": 7.78, "unit": "%"},
      {"measurement": "% cell S", "setting": "cell cycle; 48 hour, dose 2 μM", "value": 15.62, "unit": "%"},
      {"measurement": "% cell Sub G1", "setting": "cell cycle; 48 hour, dose 2 μM", "value": 24.34, "unit": "%"},
      {"measurement": "% cell G1", "setting": "cell cycle; 72 hour, dose 0.5 μM", "value": 38.72, "unit": "%"},
      {"measurement": "% cell G2/M", "setting": "cell cycle; 72 hour, dose 0.5 μM", "value": 18.82, "unit": "%"},
      {"measurement": "% cell S", "setting": "cell cycle; 72 hour, dose 0.5 μM", "value": 29.18, "unit": "%"},
      {"measurement": "% cell Sub G1", "setting": "cell cycle; 72 hour, dose 0.5 μM", "value": 10.54, "unit": "%"},
      {"measurement": "% cell G1", "setting": "cell cycle; 72 hour, dose 1 μM", "value": 40.67, "unit": "%"},
      {"measurement": "% cell G2/M", "setting": "cell cycle; 72 hour, dose 1 μM", "value": 18.26, "unit": "%"},
      {"measurement": "% cell S", "setting": "cell cycle; 72 hour, dose 1 μM", "value": 28.77, "unit": "%"},
      {"measurement": "% cell Sub G1", "setting": "cell cycle; 72 hour, dose 1 μM", "value": 10.75, "unit": "%"},
      {"measurement": "number of apoptotic cells", "setting": "[1]", "value": "concentration-dependent increase in the number of apoptotic cells"},
      {"measurement": "differentiation induction", "setting": "[2]", "value": "did not induce significant differentiation"},
      {"measurement": "IC50", "setting": "[3]", "value": "14.8 ± 12.8", "unit": "µM"},
      {"measurement": "IC50", "setting": "[4]", "value": "17 ± 15.7", "unit": "µM"}
    ]}
  ]
}
